What all share (assay): NCI tumour cell line growth inhibition, 48 h
In assay [1] the test system is COLO 205 colon.
Assay [2] has as its system CAKI-1 renal.
For assay [3], the system named is IGROV1 ovarian.
Assay [4] has as its system SF-539 CNS.
Assay [5] deals with SK-MEL-2 melanoma.
For assay [6], the system named is UACC-257 melanoma.
Assay [7] has as its system SN12C renal.
Assay [8] concerns KM12 colon.
The test system of assay [9] is MDA-MB-435.
Assay [10] has as its system 786-0 renal.

Structures are written as SMILES.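 Assay format: 96-well plates, 48-hour exposure. GI50: concentration for 50% inhibition of growth. TGI: total growth inhibition.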

We go through 16 compounds from PubChem BioAssay (NCI).

For `C[C@]12CC[C@@H]3c4ccc(Oc5nc(N6CC6)nc(N6CC6)n5)cc4CC[C@H]3[C@@H]1CCC2=O`, the GI50 was 3.35 µM in assay [1]; 0.641 µM in [2]; 3.3 µM in [3]; 2.2 µM in [4]; 3.16 µM in assay [5]; 2.89 µM in assay [6]. Besides, the GI50 in assay [7] was 1.74 µM; in [8], 5.5 µM; in assay [9], 5.43 µM; in assay [10] it was 3.41 µM. Moreover, the TGI was found to be 16.2 µM in [1]; 43.7 µM in [2]; 22.2 µM in assay [3]; 7.43 µM in assay [4]; 8.97 µM in assay [5]; 17.5 µM in [6]. The TGI in assay [7] is 15.8 µM; in [8], 20 µM; in [9], 22 µM; in assay [10] it was 22.3 µM.

In the case of `COc1ccc(-n2c(SCc3cc(OC)c(OC)c(OC)c3)nc3ccc(C)cc3c2=O)cc1`, the GI50 in assay [1] was 5.24 µM; in assay [2] it was 4.53 µM; in [3], over 100 µM; in [4], 14.8 µM; in assay [5] it was 8.73 µM; in [6], 64.4 µM. Moreover, the GI50 in assay [7] is 52.7 µM; in assay [8] it was 4.57 µM; in [9], 1.88 µM; in [10], over 100 µM. For the same compound, the TGI in assay [1], in [2], in assay [3], in assay [4], in assay [5] and in assay [6] was over 100 µM throughout. Also, the TGI in assay [7] is over 100 µM; in assay [8], over 100 µM; in [9], 4.72 µM; in assay [10] it was over 100 µM.

For `COc1ccc(OC(=O)O[C@H]2[C@H](O[C@H]3[C@@H](O)COC(O[C@H]4C[C@H]5[C@@H]6CC=C7C[C@@H](O)CC[C@]7(C)[C@H]6CC[C@]5(C)[C@H]4[C@H](C)C(=O)CCC(C)C)[C@@H]3OC(C)=O)OC[C@@H](O)[C@@H]2O)cc1` (some centres undefined), the GI50 in assay [1] was 0.164 µM; in assay [2] it was 0.0281 µM; in [3], 0.335 µM; in assay [4], under 0.01 µM; in [5], 0.0199 µM; in assay [6] it was 0.172 µM. The GI50 was 11.2 µM in [7], 0.682 µM in [8], 0.0695 µM in assay [9] and under 0.01 µM in assay [10]. Moreover, the TGI in [1] is 1.16 µM; in [2] it was 1.63 µM; in [3], 18.2 µM; in assay [4], 0.0764 µM; in assay [5] it was 0.645 µM; in assay [6], 0.52 µM. Also, the TGI in assay [7] came out at 23.8 µM; in [8] it was 19.7 µM; in [9] it was 0.759 µM; in assay [10], 3.81 µM.

`COc1ccc(/C(=N/Nc2ccc([N+](=O)[O-])cc2)Sc2cc(Cl)c(C)cc2S(N)(=O)=O)cc1`: the GI50 in [1] was 8.57 µM; in assay [2], 4.44 µM; in assay [3] it was 9.65 µM; in [4], 3.74 µM; in assay [5] it was 12.3 µM; in assay [6], 13 µM. Also, the GI50 in assay [7] is 2.2 µM; in assay [8], 3.22 µM; in assay [9], 4.67 µM; in [10] it was 4.21 µM. Moreover, the TGI is 33.3 µM in assay [1]; 9.47 µM in assay [2]; over 93.2 µM in assay [3]; 9.81 µM in assay [4]; 34 µM in assay [5]; 26.4 µM in assay [6]. Further, the TGI in assay [7] stood at 4.29 µM; in assay [8], 9.96 µM; in assay [9], 13.3 µM; in assay [10] it was 14.9 µM.

Take `COc1ccc(C(=O)/C=C/c2cccnc2Nc2cc(OC)c(OC)c(OC)c2)cc1`: the GI50 in assay [1] was 1.95 µM; in [2] it was 2.42 µM; in assay [3], 3.03 µM; in [4] it was 1.81 µM; in [5], 7.27 µM; in assay [6], 3.93 µM. For the same compound, the GI50 in [7] was 2.43 µM; in [8], 0.53 µM; in assay [9], 0.885 µM; in assay [10] it was 1.22 µM. Moreover, the TGI in assay [1] amounted to 6.12 µM; in assay [2], 14.7 µM; in assay [3] it was 21.3 µM; in assay [4] it was 5.62 µM; in [5], 21 µM; in assay [6], 15 µM. The TGI worked out at 9.69 µM in assay [7], 2.79 µM in assay [8], 12.2 µM in assay [9] and 2.96 µM in [10].

For the compound `NCCCCn1c2c(c3ccccc3c1=O)C(=O)c1ccccc1-2`, the GI50 was 0.92 µM in assay [1]; 0.0447 µM in [2]; 0.314 µM in [3]; 0.102 µM in assay [4]; 2.38 µM in [5]; 0.619 µM in [6]. Also, the GI50 was 0.0385 µM in assay [7], 0.188 µM in [8], 0.717 µM in assay [9] and 0.0639 µM in [10]. In addition, the TGI in assay [1] is 11 µM; in assay [2], 0.555 µM; in assay [4] it was 0.462 µM; in [5], over 42.4 µM; in assay [6], 1.91 µM; in [7], 0.244 µM. Also, the TGI worked out at 0.678 µM in assay [8], 2.28 µM in assay [9] and 0.573 µM in assay [10].

As to `CC(C)(C)C1=CC(=CC=C2C=CN(CCCCCCCCCCCO)C=C2)C=C(C(C)(C)C)C1=O`, the TGI in assay [1] is 2.82 µM; in assay [2], 6.7 µM; in assay [3], 2.26 µM; in assay [4] it was 3.12 µM; in assay [5], 3.5 µM; in [6] it was 4.4 µM. Also, the TGI worked out at 2.73 µM in assay [7], 4.4 µM in [8], 3.4 µM in assay [9] and 3.94 µM in assay [10].

`C[C@]12CC[C@@H]3c4ccc(O)cc4CC[C@H]3[C@@H]1CC[C@@H]2NS(=O)(=O)c1ccc(C(F)(F)F)cc1`: the GI50 in assay [1] was 1.83 µM; in assay [2], 2.78 µM; in assay [3] it was 2.45 µM; in [4] it was 1.6 µM; in assay [5] it was 2.13 µM; in assay [6] it was 2.59 µM. Also, the GI50 was 1.75 µM in [7], 1.87 µM in assay [8], 2.12 µM in assay [9] and 1.95 µM in [10]. Moreover, the TGI in [1] amounted to 3.38 µM; in assay [2], 8.06 µM; in assay [3], 6.23 µM; in assay [4], 2.97 µM; in assay [5] it was 4 µM; in assay [6], 7.57 µM. The TGI in [7] was determined as 3.36 µM; in assay [8], 3.57 µM; in [9], 5 µM; in assay [10] it was 3.77 µM.

For the compound `COc1cc([N+](=O)[O-])ccc1NC(=O)C(F)(F)F`, the TGI in assay [1], in assay [2], in assay [3], in assay [4], in assay [5] and in assay [6] was over 100 µM throughout. Besides, the TGI in assay [7], in assay [8], in [9] and in assay [10] was over 100 µM throughout.

In the case of `CCC1(O)C(=O)OCc2c1cc1n(c2=O)Cc2cc3c(N)cccc3nc2-1` (centres undefined), the TGI came out at 6.41 µM in [1]; 0.272 µM in [2]; 6.23 µM in assay [3]; 0.0409 µM in [4]; 3.43 µM in [5]; 2.62 µM in assay [6]. The TGI is 0.595 µM in assay [7], 20 µM in assay [8], 2.88 µM in assay [9] and 0.0893 µM in [10].

With `CC12CCCC(CC(=O)c3[nH]c4ccccc4c31)C2` (centres undefined), the GI50 in [1] is 1.29 µM; in assay [2] it was 0.535 µM; in assay [3], 0.793 µM; in assay [4], 0.698 µM; in assay [5], 1.91 µM; in assay [6] it was 15.2 µM. In addition, the GI50 in assay [7] is 1.91 µM; in [8], 0.641 µM; in assay [9], 0.255 µM; in [10], 0.879 µM. The TGI is 5.3 µM in assay [1]; over 78.8 µM in assay [2]; over 100 µM in assay [3]; 5.75 µM in assay [4]; over 59.1 µM in assay [5]; over 100 µM in assay [6]. The TGI in assay [7] is 20.3 µM; in [8], over 54 µM; in [9], 0.949 µM; in assay [10], 18.4 µM.

In the case of `O=[N+]([O-])c1ccc2nnnn2c1`, the TGI was over 100 µM in [1]; 63.1 µM in assay [2]; over 100 µM in assay [3]; 65.7 µM in assay [4]; 67.1 µM in assay [5]; over 100 µM in assay [6]. The TGI in assay [7] was over 100 µM; in [8], over 100 µM; in [9], 32.8 µM; in assay [10] it was over 100 µM.

In the case of `COc1cc(Cn2c(-c3ccccc3)cc3c2-c2oncc2CC3)cc(OC)c1OC`, the GI50 in assay [1] is 0.696 µM; in assay [2], 0.566 µM; in assay [3], 2.64 µM; in assay [4], 0.735 µM; in assay [5], 18.6 µM; in [6], 20.2 µM. The GI50 in assay [7] is 5.84 µM; in assay [8] it was 0.585 µM; in assay [9] it was 0.248 µM; in assay [10], 1.52 µM. In addition, the TGI is 3.13 µM in assay [1]; over 100 µM in [2]; over 100 µM in [3]; 10.3 µM in assay [4]; over 100 µM in [5]; over 100 µM in assay [6]. For the same compound, the TGI in assay [7] is over 100 µM; in assay [8], 22.8 µM; in assay [9] it was 0.905 µM; in assay [10], 39.8 µM.

`COC(=O)[C@]12CCC(C)(C)C[C@H]1C1=CC[C@@H]3[C@@]4(C)C/C(=C/c5cccnc5)C(=O)C(C)(C)[C@@H]4CC[C@@]3(C)[C@]1(C)CC2`: the GI50 in assay [1] is 6.51 µM; in assay [2], 6.87 µM; in [3], 5.2 µM; in assay [4], 7.43 µM; in assay [5] it was 11.6 µM; in [6], 12.5 µM. The GI50 in [7] was 4.86 µM; in [8] it was 5.06 µM; in assay [9], 5.05 µM; in [10], 3.58 µM. Besides, the TGI in assay [1] worked out at 25.3 µM; in [2], 22.3 µM; in [3], 31.5 µM; in [4] it was 20.7 µM; in assay [5], 32.1 µM; in assay [6], 42.8 µM. For the same compound, the TGI in assay [7] came to 23.4 µM; in assay [8], 19.9 µM; in [9], 20 µM; in assay [10], 17.4 µM.

`COc1ccc(-c2nc(-c3nc4ccc(C)cc4[nH]3)c3ccccn23)cc1`: the GI50 in assay [1] is 3.23 µM; in assay [2], 2.83 µM; in [3], 2.18 µM; in assay [4] it was 3.32 µM; in assay [5], 2.51 µM; in [6] it was 2.41 µM. The GI50 in assay [7] is 3.08 µM; in assay [8] it was 2.38 µM; in assay [9], 2.3 µM; in [10], 3.67 µM. Further, the TGI in assay [1] was over 100 µM; in assay [2] it was over 100 µM; in assay [3], 6.12 µM; in [4], over 100 µM; in assay [5] it was 5.71 µM; in [6], 6.17 µM. In addition, the TGI was over 100 µM in [7], 9.07 µM in [8], 8.46 µM in assay [9] and over 100 µM in assay [10].

`O=c1[nH]c(=O)n(C2CC(O)C(CS)O2)cc1F` (centres undefined): the TGI in [1] is over 100 µM; in [2] it was over 100 µM; in [3], over 100 µM; in assay [4], over 90.2 µM; in assay [5] it was over 100 µM; in assay [6], over 100 µM. Further, the TGI in assay [7], in assay [8], in assay [9] and in [10] was over 100 µM in each case.
